Measurements reported in US10576105B2, “Mesenchymal stem cells with enhanced immunosuppressive capability” (Escape Therapeutics, Inc., priority 2015, dated 2020).

Key:
Type in all cases: cell-based, human
HLA-G1 [1] = test: HLA-G1 transcript expression in BMSCs by semi-quantitative RT-PCR; settings: mean±SEM
Protocol: (§1) Adult BMSCs (passage 2) were obtained from Cell Applications, Inc. (San Diego, Calif.) and cultured in alpha-minimum essential medium (α-MEM) (Invitrogen) supplemented with 10% FBS and 1% penicillin/streptomycin (Invitrogen) at 37° C. in a humidified 5% CO2 incubator. At 70-80% confluence, cells were harvested with 0.25% trypsin-EDTA (Invitrogen) and expanded at 1:3 split ratios.
(§2) Demethylating treatment was carried out by culturing MSCs for 72 h with 5-aza-2′-deoxycytidine (5-aza-dC) (Sigma) at a final concentration of 10 μM or with the solvent DMSO as control.
(§3) After 72 h treatment, cells were trypsinized and total RNA extracted using RNeasy kit (Qiagen, Valencia, Calif.) according to the manufacturer's protocol. Semi-quantitative RT-PCR reactions were performed on a DNA Engine Peltier Thermal Cycler (Bio-Rad, Hercules, Calif.) as previously described. M. D. Nicola, et al., Human bone marrow stromal cells suppress T-lymphocyte proliferation induced by cellular or non-specific mitogenic stimuli, Blood 99: 3838-3843 (2002). Briefly, first strand cDNA was synthesized in 50 μl reactions from 2 μg total RNA using oligo dT primers and TaqMan reverse transcription reagents (Applied Biosystems, Foster City, Calif.). Reverse transcription (RT) reactions were carried out at 24° C. for 10 min, 48° C. for 1 h, and heat inactivation at 95° C. for 5 min. […] PCR program consisted of 94° C. for 4 min, followed by 30 cycles at 94° C. for 30 s, 60° C. for 1 min, and 72° C. for 1 min with a final extension at 72° C. for 10 min. PCR products were separated using 1.5% agarose gel in the presence of 0.5 μg/ml ethidium bromide and imaged using the FluorChem® HD2 Imaging System (Alpha Innotech Corporation, San Leandro, Calif.). Densitometry analysis was performed using AlphaEase FC software (Alpha Innotech Corporation). […]
(§4) Total RNA was extracted from both treated and untreated cells, and HLA-G1 and -G3 transcripts analyzed by semi-quantitative RT-PCR.
(§5) MSCs were treated with Valproic acid (VPA) (a known histone deacetylase inhibitor (HDAC) inhibitor) and HLA-G1, -G3 and HLA-G5 transcripts were evaluated by semi-quantitative RT-PCR.

HLA-G3 [2] = test: HLA-G3 transcript expression in BMSCs by semi-quantitative RT-PCR; settings: mean±SEM
Protocol: as §1, §2
After 72 h treatment, cells were trypsinized and total RNA extracted using RNeasy kit (Qiagen, Valencia, Calif.) according to the manufacturer's protocol. Semi-quantitative RT-PCR reactions were performed on a DNA Engine Peltier Thermal Cycler (Bio-Rad, Hercules, Calif.) as previously described. M. D. Nicola, et al., Human bone marrow stromal cells suppress T-lymphocyte proliferation induced by cellular or non-specific mitogenic stimuli, Blood 99: 3838-3843 (2002). Briefly, first strand cDNA was synthesized in 50 μl reactions from 2 μg total RNA using oligo dT primers and TaqMan reverse transcription reagents (Applied Biosystems, Foster City, Calif.). Reverse transcription (RT) reactions were carried out at 24° C. for 10 min, 48° C. for 1 h, and heat inactivation at 95° C. for 5 min. RT samples were diluted at 1:4 in DNase, RNase free water and PCR performed in 20 μl reaction using Taq PCR master mix (Qiagen), 1 μl of diluted template, and HLA-G primers (Table 1). β-actin was used as an internal control. PCR program consisted of 94° C. for 4 min, followed by 30 cycles at 94° C. for 30 s, 60° C. for 1 min, and 72° C. for 1 min with a final extension at 72° C. for 10 min. PCR products were separated using 1.5% agarose gel in the presence of 0.5 μg/ml ethidium bromide and imaged using the FluorChem® HD2 Imaging System (Alpha Innotech Corporation, San Leandro, Calif.). Densitometry analysis was performed using AlphaEase FC software (Alpha Innotech Corporation). Relative expression levels were calculated from the ratio of integrated density values of HLA-G to that of β-actin.
as §4, §5

HLA-G3 [3] = test: HLA-G3 transcript expression in AMSCs by semi-quantitative RT-PCR; settings: for Relative HLA-G3 expression: ratio HLA-G to β-actin, mean±SEM, 3 experiments
Protocol: (§6) AMSCs were isolated from adult human lipoaspirate of patients undergoing liposuction procedure. Briefly, abdominal subcutaneous adipose samples were washed with Hanks' balanced salt solutions (HBSS) (Invitrogen, Carlsbad, Calif.). After gentle shaking, the lower phase (containing stem cells, adipocytes, and blood) was washed and enzymatically dissociated with 0.075% collagenase type I (Sigma-Aldrich, St. Louis, Mo.)/HBSS for 1 h at 37° C. with gentle shaking. Collagenase was inactivated by adding fetal bovine serum (FBS) and samples were centrifuged at 400 g for 10 min at 25° C. The pellet was resuspended in RBC lysis buffer (eBioscience, San Diego, Calif.) and adherent cell masses were removed by sequential passing through 100, 70, and 40 μm mesh filters. Cells were then added into equal amounts of HISTOPAQUE-1077 (Sigma) and centrifuged at 400 g for 30 min to separate MSCs. Cells were seeded at 1-2×10^4 cells/cm^2 and grown in Dulbecco's modified eagle medium (DMEM, Invitrogen) supplemented with 10% FBS and 1% penicillin/streptomycin (Invitrogen) at 37° C. in a humidified 5% CO2 incubator and media changed every 2-3 d. After reaching 70-80% confluence, cells were washed with phosphate buffered saline (PBS), detached with 0.25% trypsin-EDTA (Invitrogen), then centrifuged and expanded at 1:3 split ratios.
as §2
After 72 h treatment, cells were trypsinized and total RNA extracted using RNeasy kit (Qiagen, Valencia, Calif.) according to the manufacturer's protocol. Semi-quantitative RT-PCR reactions were performed on a DNA Engine Peltier Thermal Cycler (Bio-Rad, Hercules, Calif.) as previously described. M. D. Nicola, et al., Human bone marrow stromal cells suppress T-lymphocyte proliferation induced by cellular or non-specific mitogenic stimuli, Blood 99: 3838-3843 (2002). Briefly, first strand cDNA was synthesized in 50 μl reactions from 2 μg total RNA using oligo dT primers and TaqMan reverse transcription reagents (Applied Biosystems, Foster City, Calif.). Reverse transcription (RT) reactions were carried out at 24° C. for 10 min, 48° C. for 1 h, and heat inactivation at 95° C. for 5 min. […] Relative expression levels were calculated from the ratio of integrated density values of HLA-G to that of β-actin.
as §4, §5

HLA-G5 [4] = test: HLA-G5 mRNA level in AMSCs by RT-PCR; settings: for Relative expression of HLA-G5: AMSCs, band intensity HLA-G5 divided by β2M, means±SEM, 3 runs
Protocol: as §6
After 72 h treatment, cells were trypsinized and total RNA extracted using RNeasy kit (Qiagen, Valencia, Calif.) according to the manufacturer's protocol. Semi-quantitative RT-PCR reactions were performed on a DNA Engine Peltier Thermal Cycler (Bio-Rad, Hercules, Calif.) as previously described. M. D. Nicola, et al., Human bone marrow stromal cells suppress T-lymphocyte proliferation induced by cellular or non-specific mitogenic stimuli, Blood 99: 3838-3843 (2002). Briefly, first strand cDNA was synthesized in 50 μl reactions from 2 μg total RNA using oligo dT primers and TaqMan reverse transcription reagents (Applied Biosystems, Foster City, Calif.). […]

HLA-G1 [5] = test: HLA-G1 transcript expression in AMSCs by semi-quantitative RT-PCR; settings: for Relative HLA-G1 expression: 10 μM for 72 h, ratio HLA-G to β-actin, mean±SEM, 3 experiments
Protocol: as §6, with “ratios. […]” for “ratios.”
After 72 h treatment, cells were trypsinized and total RNA extracted using RNeasy kit (Qiagen, Valencia, Calif.) according to the manufacturer's protocol. Semi-quantitative RT-PCR reactions were performed on a DNA Engine Peltier Thermal Cycler (Bio-Rad, Hercules, Calif.) as previously described. […] Relative expression levels were calculated from the ratio of integrated density values of HLA-G to that of β-actin.
as §4, §5

HLA-G5 [6] = test: HLA-G5 mRNA level in BMSCs by RT-PCR; settings: band intensity HLA-G5 divided by β2M, means±SEM, 3 runs
Protocol: as §1
as §3, with “min.” for “min. PCR products were separated using 1.5% agarose gel in the presence of 0.5 μg/ml ethidium bromide and imaged using the FluorChem® HD2 Imaging System (Alpha Innotech Corporation, San Leandro, Calif.). Densitometry analysis was performed using AlphaEase FC software (Alpha Innotech Corporation).”

[7] = BMSCs passage 5 (P5), 10 μM for 72 h, ratio HLA-G to β-actin, 3 experiments
[8] = BMSCs passage 10 (P10), 10 μM for 72 h, ratio HLA-G to β-actin, 3 experiments

SMILES	Relative HLA-G1 expression (HLA-G1 [1]; [7])	Relative HLA-G1 expression (HLA-G1 [1]; [8])	Relative HLA-G3 expression (HLA-G3 [2]; [7])	Relative HLA-G3 expression (HLA-G3 [2]; [8])	Relative HLA-G3 expression, fold higher than untreated (HLA-G3 [3]; AMSCs P5 and P10, 10 μM for 72 h, treated versus untreated) [fold]	Relative HLA-G3 expression (HLA-G3 [3]; AMSCs passage 5 (P5), 10 μM for 72 h)	Relative HLA-G3 expression (HLA-G3 [3]; AMSCs passage 10 (P10), 10 μM for 72 h)	Relative expression of HLA-G5 (HLA-G5 [4])	Relative HLA-G1 expression (HLA-G1 [5]; AMSCs passage 5 (P5))	Relative HLA-G1 expression (HLA-G1 [5]; AMSCs passage 10 (P10))	Relative expression of HLA-G5 (HLA-G5 [6])	Relative HLA-G1 expression (HLA-G1 [1]; VPA-treated BMSCs passage 5 (P5), relative to β2M (FIG. 5A))	Relative HLA-G1 expression (HLA-G1 [1]; VPA-treated BMSCs passage 10 (P10), relative to β2M (FIG. 5A))	Relative HLA-G3 expression (HLA-G3 [2]; VPA-treated BMSCs passage 5 (P5), FIG. 5B)	Relative HLA-G3 expression (HLA-G3 [2]; VPA-treated BMSCs passage 10 (P10), FIG. 5B)	Upregulation of HLA-G3 mRNA (HLA-G3 [3]; AMSCs treated with VPA, P5 and P10 (FIG. 5D))	Upregulation of HLA-G5 mRNA (HLA-G5 [4]; AMSCs treated with VPA (Table 2))	Upregulation of HLA-G1 mRNA (HLA-G1 [5]; AMSCs treated with VPA, P5 and P10 (FIG. 5C))
Nc1ncn([C@H]2C[C@H](O)[C@@H](CO)O2)c(=O)n1 [5-aza-dC, 4-amino-1-(2-deoxy-b-D-erythro-pentofuranosyl)-1,3,5-triazin-2(1H)-one]	0.16±0.01	0.24±0.01	0.33±0.08	0.38±0.07	~2	0.31±0.05	0.27±0.06	0.009 ± 0.001	0.15±0.02	0.23±0.19	0.009 ± 0.00							
CCCC(CCC)C(=O)O [VPA, Valproic acid]								0.006 ± 0.00			0.006 ± 0.004	0.08±0.02	0.05±0.002	0.04±0.01	0.01±0.001	no upregulation	no upregulation	no upregulation
